Results: US9650379B2 (CHONG KUN DANG PHARMACEUTICAL CORP., priority 2013, dated 2017)

Experiments:
[1] = biological target: T1, HDAC6 human recombinant (Homo sapiens, UniProt Q9UBN7); test: Inhibition of HDAC6 activity (fluorimetric assay); type: biochemical; conditions: test concentrations 0.1, 1, 10, 100 and 1000 nM; 37° C., 60 minutes
T1 construct: purchased Calbiochem 382180
T1 sequence (Q9UBN7 1-1215): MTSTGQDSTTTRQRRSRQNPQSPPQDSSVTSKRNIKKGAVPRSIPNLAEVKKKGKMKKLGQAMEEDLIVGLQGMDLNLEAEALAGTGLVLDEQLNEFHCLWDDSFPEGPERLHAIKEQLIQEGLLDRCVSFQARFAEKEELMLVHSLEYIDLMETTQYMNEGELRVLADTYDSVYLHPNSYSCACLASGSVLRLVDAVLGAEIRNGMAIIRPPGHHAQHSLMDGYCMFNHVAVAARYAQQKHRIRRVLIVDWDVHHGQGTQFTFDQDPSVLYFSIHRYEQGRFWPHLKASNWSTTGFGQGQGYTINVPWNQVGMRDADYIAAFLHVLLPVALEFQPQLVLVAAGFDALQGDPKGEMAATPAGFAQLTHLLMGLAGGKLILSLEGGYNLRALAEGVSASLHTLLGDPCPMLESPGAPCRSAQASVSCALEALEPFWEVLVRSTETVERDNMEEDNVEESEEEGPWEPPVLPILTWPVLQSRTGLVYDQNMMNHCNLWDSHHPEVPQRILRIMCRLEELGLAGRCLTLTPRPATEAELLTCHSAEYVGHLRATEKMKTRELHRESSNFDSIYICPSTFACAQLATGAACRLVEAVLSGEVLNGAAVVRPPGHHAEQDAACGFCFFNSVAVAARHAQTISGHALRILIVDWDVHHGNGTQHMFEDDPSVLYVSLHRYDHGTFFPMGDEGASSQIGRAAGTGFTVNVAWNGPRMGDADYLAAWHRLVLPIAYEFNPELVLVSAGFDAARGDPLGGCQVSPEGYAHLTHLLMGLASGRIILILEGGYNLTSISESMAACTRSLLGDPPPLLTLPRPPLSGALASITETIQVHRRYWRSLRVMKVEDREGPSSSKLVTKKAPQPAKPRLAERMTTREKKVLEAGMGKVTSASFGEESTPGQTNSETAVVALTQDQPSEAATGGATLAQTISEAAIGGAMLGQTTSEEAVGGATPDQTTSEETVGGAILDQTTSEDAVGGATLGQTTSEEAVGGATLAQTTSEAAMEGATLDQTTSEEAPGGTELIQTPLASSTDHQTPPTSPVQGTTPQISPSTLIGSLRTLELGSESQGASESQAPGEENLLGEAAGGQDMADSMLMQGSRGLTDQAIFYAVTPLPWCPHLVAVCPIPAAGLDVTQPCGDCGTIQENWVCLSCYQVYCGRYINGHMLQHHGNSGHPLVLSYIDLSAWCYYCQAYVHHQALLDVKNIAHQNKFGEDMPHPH
Protocol: (§1) Assays were performed using a HDAC1 fluorimetric drug discovery assay kit (Enzolifesciences: BML-AK511) and a HDAC6 human recombinant (Calbiochem: 382180). The assay mixture of the kit was treated with a test compound at concentrations of 100, 1000 and 10000 nM for HDAC1 assay and concentrations of 0.1, 1, 10, 100 and 1000 nM for HDAC6 assay. The treated assay mixture was allowed to react at 37° C. for 60 minutes, and then was treated with a developer and allowed to stand at 37° C. for 30 minutes, followed by quantification of the fluorescence.

[2] = biological target: T2, HDAC1 (Homo sapiens, UniProt Q13547); test: Inhibition of HDAC1 activity (HDAC1 fluorimetric drug discovery assay kit); type: biochemical; conditions: test concentrations 100, 1000 and 10000 nM; 37° C., 60 minutes
T2 construct: purchased Enzolifesciences BML-AK511
T2 sequence (Q13547 whole entry): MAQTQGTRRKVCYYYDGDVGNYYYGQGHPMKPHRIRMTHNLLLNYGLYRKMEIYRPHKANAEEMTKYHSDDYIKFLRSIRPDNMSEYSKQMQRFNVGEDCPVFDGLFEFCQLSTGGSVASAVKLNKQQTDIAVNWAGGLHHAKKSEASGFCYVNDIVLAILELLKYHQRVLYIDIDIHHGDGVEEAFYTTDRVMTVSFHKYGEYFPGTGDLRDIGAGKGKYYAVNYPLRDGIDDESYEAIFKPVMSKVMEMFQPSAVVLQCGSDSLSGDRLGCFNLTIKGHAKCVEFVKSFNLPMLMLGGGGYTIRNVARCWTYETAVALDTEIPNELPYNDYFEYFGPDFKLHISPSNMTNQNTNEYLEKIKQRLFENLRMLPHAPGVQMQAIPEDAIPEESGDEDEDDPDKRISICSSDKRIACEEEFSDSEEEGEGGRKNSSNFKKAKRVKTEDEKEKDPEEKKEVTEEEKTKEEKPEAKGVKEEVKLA
Protocol: as §1

Row | Compound | IC50 [1] [nM] | IC50 [2] [nM]
1 | O=C(NO)c1ccc(Cn2ccc3cc(C4=CCNCC4)cnc32)cc1 [Compound 693, N-hydroxy-4-((5-(1,2,3,6-tetrahydropyridin-4-yl)-1H-pyrrolo[2,3-b]pyridin-1-yl)methyl)benzamide] | 3 | 520
2 | O=C(NO)c1ccc(Cn2ccc3cc(C4CCN(Cc5ccccc5)CC4)cnc32)cc1 [Compound 804, 4-((5-(1-benzylpiperidin-4-yl)-1H-pyrrolo[2,3-b]pyridin-1-yl)methyl)-N-hydroxybenzamide] | 58 | 1980
3 | C[C@@H]1CN(c2cnc3c(ccn3Cc3ccc(C(=O)NO)cc3)c2)C[C@H](C)N1Cc1cccc(F)c1 [Compound 857, 4-((5-((3S,5R)-4-(3-fluorobenzyl)-3,5-dimethylpiperazin-1-yl)-1H-pyrrolo[2,3-b]pyridin-1-yl)methyl)-N-hydroxybenzamide] | 24.8 | 2140
4 | O=C(NO)c1ccc(Cn2ccc3cc(N4CCN(Cc5ccc(F)cc5)CC4)cnc32)cc1 [Compound 852, 4-((5-(4-(4-fluorobenzyl)piperazin-1-yl)-1H-pyrrolo[2,3-b]pyridin-1-yl)methyl)-N-hydroxybenzamide] | 11.5 | 2210
5 | O=C(NO)c1ccc(Cn2ccc3cc(N4CCOCC4)cnc32)cc1 [Compound 787, N-hydroxy-4-((5-morpholino-1H-pyrrolo[2,3-b]pyridin-1-yl)methyl)benzamide] | 24.9 | 2780
6 | O=C(NO)c1ccc(Cn2ccc3c(C4CCN(Cc5ccccc5F)CC4)ccnc32)cc1 [Compound 869, 4-((4-(1-(2-fluorobenzyl)piperidin-4-yl)-1H-pyrrolo[2,3-b]pyridin-1-yl)methyl)-N-hydroxybenzamide] | 26.3 | 350
7 | O=C(NO)c1ccc(Cn2ccc3cc(-c4ccccc4)cnc32)cc1 [Compound 645, N-hydroxy-4-((5-phenyl-1H-pyrrolo[2,3-b]pyridin-1-yl)methyl)benzamide] | 17 | 3050
8 | CC(C)(C)OC(=O)N1CC=C(c2ccnc3c2ccn3Cc2ccc(C(=O)NO)cc2)CC1 [Compound 784] | 16 | 930
9 | O=C(NO)c1ccc(Cn2ccc3cc(C4CCN(Cc5noc(C(F)(F)F)n5)CC4)cnc32)cc1 [Compound 845, N-hydroxy-4-((5-(1-((5-(trifluoromethyl)-1,2,4-oxadiazol-3-yl)methyl)piperidin-4-yl)-1H-pyrrolo[2,3-b]pyridin-1-yl)methyl)benzamide] | 1.2 | 300
10 | CC(C)(C)OC(=O)N1CC=C(c2cc3c(ccn3Cc3ccc(C(=O)NO)cc3)cn2)CC1 [Compound 783, tert-butyl 4-(1-(4-(hydroxycarbamoyl)benzyl)-1H-pyrrolo[3,2-c]pyridin-6-yl)-5,6-dihydropyridine-1(2H)-carboxylate] | 12 | 450
11 | O=C(NO)c1ccc(Cn2ccc3cc(C4CCN(CC5(C(F)(F)F)CCC5)CC4)cnc32)cc1 [Compound 724, N-hydroxy-4-((5-(1-((1-(trifluoromethyl)cyclobutyl)methyl)piperidin-4-yl)-1H-pyrrolo[2,3-b]pyridin-1-yl)methyl)benzamide] | 147 | 9820
12 | COc1cccc(CN2CCN(c3ccnc4c3ccn4Cc3ccc(C(=O)NO)cc3)CC2)c1 [Compound 846, N-hydroxy-4-((4-(4-(3-methoxybenzyl)piperazin-1-yl)-1H-pyrrolo[2,3-b]pyridin-1-yl)methyl)benzamide] | 5.7 | 1410
13 | CC(C)(F)CN1CC=C(c2cnc3c(ccn3Cc3ccc(C(=O)NO)cc3)c2)CC1 [Compound 617, 4-((5-(1-(2-fluoro-2-methylpropyl)-1,2,3,6-tetrahydropyridin-4-yl)-1H-pyrrolo[2,3-b]pyridin-1-yl)methyl)-N-hydroxybenzamide] | 9 | 4220
14 | O=C(NO)c1ccc(Cn2ccc3cc(-c4cncnc4)cnc32)cc1 [Compound 124, N-hydroxy-4-((5-(pyrimidin-5-yl)-1H-pyrrolo[2,3-b]pyridin-1-yl)methyl)benzamide] | 120 | 540
15 | CC(C)(O)CN1CCC(c2ccnc3c2ccn3Cc2ccc(C(=O)NO)cc2)CC1 [Compound 812, N-hydroxy-4-((4-(1-(2-hydroxy-2-methylpropyl)piperidin-4-yl)-1H-pyrrolo[2,3-b]pyridin-1-yl)methyl)benzamide] | 5 | 150

Other lines, results leading:

Row | IC50 [1] [nM] | IC50 [2] [nM] | Compound
16 | 11.5 | 420 | CN1CCN(Cc2cccc(CN3CCC(c4ccnc5c4ccn5Cc4ccc(C(=O)NO)cc4)CC3)c2)CC1 [Compound 986, N-hydroxy-4-((4-(1-(3-((4-methylpiperazin-1-yl)methyl)benzyl)piperidin-4-yl)-1H-pyrrolo[2,3-b]pyridin-1-yl)methyl)benzamide]
17 | 1.7 | 250 | CC(C)(O)CN1C2CCC1CC(c1ccnc3c1ccn3Cc1ccc(C(=O)NO)cc1)C2 (stereo not shown) [Compound 930, N-hydroxy-4-((4-(8-(2-hydroxy-2-methylpropyl)-8-aza-bicyclo[3.2.1]octan-3-yl)-1H-pyrrolo[2,3-b]pyridin-1-yl)methyl)benzamide]
18 | 52 | 1610 | O=C(NO)c1ccc(Cn2ccc3cc(-c4ccc(F)cc4F)cnc32)cc1 [Compound 125, 4-((5-(2,4-difluorophenyl)-1H-pyrrolo[2,3-b]pyridin-1-yl)methyl)-N-hydroxybenzamide]
19 | 93 | 7050 | CC1(C)CC=C(c2cnc3c(ccn3Cc3ccc(C(=O)NO)cc3)c2)CC1 [Compound 649]
20 | 6.2 | 780 | CN1CCN(Cc2ccc(C(=O)N3CCC(c4cnc5c(ccn5Cc5ccc(C(=O)NO)cc5)c4)CC3)cc2)CC1 [Compound 898, N-hydroxy-4-((5-(1-(4-((4-methylpiperazin-1-yl)methyl)benzoyl)piperidin-4-yl)-1H-pyrrolo[2,3-b]pyridin-1-yl)methyl)benzamide]
21 | 24 | 3510 | CC(C)CN1CCN(c2cnc3c(ccn3Cc3ccc(C(=O)NO)cc3)c2)CC1 [Compound 853, N-hydroxy-4-((5-(4-isobutylpiperazin-1-yl)-1H-pyrrolo[2,3-b]pyridin-1-yl)methyl)benzamide]
22 | 15.6 | 930 | CC(C)(C)CN1CCC(c2ccnc3c2ccn3Cc2ccc(C(=O)NO)cc2)CC1 [Compound 868, N-hydroxy-4-((4-(1-neopentylpiperidin-4-yl)-1H-pyrrolo[2,3-b]pyridin-1-yl)methyl)benzamide]
23 | 5.7 | 320 | O=C(NO)c1ccc(Cn2ccc3c(C4CCN(Cc5ccc(CN6CCOCC6)cc5)CC4)ccnc32)cc1 [Compound 987, N-hydroxy-4-((4-(1-(4-(morpholinomethyl)benzyl)piperidin-4-yl)-1H-pyrrolo[2,3-b]pyridin-1-yl)methyl)benzamide]
24 | 8 | 1090 | CC(C)(F)CN1CC=C(c2ccnc3c2ccn3Cc2ccc(C(=O)NO)cc2)CC1 [Compound 630, 4-((4-(1-(2-fluoro-2-methylpropyl)-1,2,3,6-tetrahydropyridin-4-yl)-1H-pyrrolo[2,3-b]pyridin-1-yl)methyl)-N-hydroxybenzamide]
25 | 5.3 | 850 | O=C(NO)c1ccc(Cn2ccc3cc(C4CCN(Cc5ncccn5)CC4)cnc32)cc1 [Compound 881, N-hydroxy-4-((5-(1-(pyrimidin-2-ylmethyl)piperidin-4-yl)-1H-pyrrolo[2,3-b]pyridine-1-yl)methyl)benzamide]
26 | 7 | 380 | CCN1CCN(c2ccnc3c2ccn3Cc2ccc(C(=O)NO)cc2)CC1 [Compound 223, 4-((4-(4-ethylpiperazin-1-yl)-1H-pyrrolo[2,3-b]pyridin-1-yl)methyl)-N-hydroxybenzamide]
